Data on 6 compounds can be found in US10780101B2, “Amide derivatives of squalamine for the treatment of infections” (VIRBAC, priority 2016, dated 2020).

SMILES strings stand for the structures. Converted amounts (≈) assume the structure as drawn. Where two headings read alike, the source gives them in different places.

The subject of assay [1] is E. faecalis Human ATCC 29212. Kind of assay: MIC determination, E. faecalis human ATCC 29212. The format is cell-based. The note with it: Enterococcus faecalis, ATCC29212; Gram-positive; Mueller-Hinton medium, 24 h at 37° C. The method, then: (§1) A negative control (2 mL of sterile culture medium)
(§2) A positive control (1940 μL of culture medium+40 μL of DMSO+20 μL of the bacterial suspension) from a thawed biological strain (the biological strains are stored at −80° C. in glycerol).
(§3) The tubes were incubated at 37° C. for 24 hours at 100 rpm.
(§4) The microorganisms were handled under a type L2 laboratory fume cupboard and, before any handling, a UV cycle was programmed and only sterile material was used. […] The chemical compounds to be tested were prepared in a DMSO/methanol mixture (50/50) at a concentration of 5 mg/mL.
(§5) After 24 hours of incubation, a measurement of the optical density was taken using a spectrophotometer at 600 nm, collecting 100 μL of the bacterial suspension diluted in 900 μL of the sterile culture medium. This test required the use of a 96-well plate and the required volume of the microbial suspension to be seeded was calculated for an OD corresponding to a value equal to 0.01 in each well. In this plate, the first line corresponded to the negative control (195 μL of sterile culture medium in each well), the second line corresponded to the positive control (seeded culture medium supplemented with 2% of DMSO), and the third line was loaded twice with bacterial suspension; 8 μL of test product were placed in each well. Thereafter, a 0.5 cascade dilution was performed from this line.
(§6) The first column served as inhibition control. A sterile filter was then placed on the microplate, allowing the passage of gases but not of contaminants. The microplate was incubated at 37° C. under a humid atmosphere for 24 hours.
(§7) NB: The medium used is Mueller-Hinton (MH) medium for bacteria. All the tests were performed in duplicate.
(§8) After incubation, the filter was replaced with a transparent film, and an OD reading was then taken in an iEMS plate spectrophotometer at 620 nm. Calculation of the minimum inhibitory concentration (MIC) was performed.

In a further assay the test system is S. aureus Animal (340). Kind of assay: MIC determination, S. aureus animal (340). It is filed as cell-based. As to conditions: Staphylococcus aureus; Gram-positive; Mueller-Hinton medium, 24 h at 37° C. The method, then: as §1, §2, §3, §4, §5, §6, §7, §8
The subject of the next assay is CHO-K1 cells. Kind of assay: WST1 cytotoxicity test on CHO-K1 cells. The format is cell-based, Chinese hamster. The note with it: Cricetulus griseus, read-out: IC50 (μg/mL) CHO. As for the experimental part: Test WST1 was used to measure the cytotoxic activity of the products. This is a colorimetric test which makes it possible to measure the viability and the degree of cell proliferation. It is based on cleavage of the colorless tetrazolium salts WST-1 (4-[3-(4-iodophenyl)-2-(4-nitrophenyl)-2H-5-tetrazolio]-1,3-benzene disulfonate) with mitochondrial dehydrogenases to the yellow-colored formazan derivative, which may be quantified by spectrophotometry at 420-480 nm.
The WST1 test was performed on Chinese hamster ovary cells. The CHO-K1 cells (ATCC, USA) are kept in culture in McCoy's 5A medium supplemented with 10% fetal calf serum, 2 mM of L-glutamine and a mixture of penicillin-streptomycin (100 U/ml: 10 μg/ml). The culture is incubated at 37° C. under an atmosphere enriched in CO2 (5%), and subcultured every two days.
The cells are transferred into 96-well plates (25000 cells/mL) in whole McCoy's 5A medium, and maintained for 24 hours at 37° C. under a humid atmosphere enriched in CO2 (5%). Increasing concentrations of test products are added to the wells in double tests and 8 growth controls containing the cells in the medium alone are included in each series of tests. After 24 hours at 37° C. (5% CO2), the culture medium is removed, the cells are rinsed in phosphate buffer (PBS) and 50 μL of PBS containing 10% of reagent WST1 are added to each well. After 20 minutes of incubation at 37° C., the results are read by spectrophotometry at 450 nm.
The results are expressed in dose-response relationships, modeled by nonlinear regression analysis using the TableCurve software. The 50% inhibitory concentration (IC50) represents the concentration of product that is capable of reducing the cell viability by 50%.
A general note: Formazan colour is commonly taken as a measure of viable cells.

In assay [2] the test system is P. aeruginosa Human ATCC 27853. Kind of assay: MIC determination, P. aeruginosa human ATCC 27853. The format is cell-based. As to conditions: Pseudomonas aeruginosa, ATCC27853; Gram-negative; Mueller-Hinton medium, 24 h at 37° C. As for the experimental part: as §1, §2, §3, §4, §5, §6, §7, §8
A further assay has as its system P. aeruginosa (1051575). Briefly: Potentiation of doxycycline activity (combination MIC). It is filed as cell-based, Pseudomonas aeruginosa. The note with it: for MIC - P. aeruginosa (1051575): content of compound of formula (I) to restore the doxycycline activity (at 2 μg/mL): in presence of doxycycline 2 μg/mL, 24 hours at 37° C.
Assay [3] concerns S. aureus Human ATCC 25923. Kind of assay: MIC determination, S. aureus human ATCC 25923. The format is cell-based. As to conditions: Staphylococcus aureus, ATCC25923; Gram-positive; Mueller-Hinton medium, 24 h at 37° C. As for the experimental part: as §1, §2, §3, §4, §5, §6, §7, §8
For the next assay, the system named is E. coli Animal (1956). Kind of assay: MIC determination, E. coli animal (1956). The format is cell-based. The note with it: Escherichia coli; Gram-negative; Mueller-Hinton medium, 24 h at 37° C. As for the experimental part:
as §1, §2, §3, §4, §5, §6, §7, §8

Assay [4] deals with P. aeruginosa Animal (1051575). Briefly: MIC determination, P. aeruginosa animal (1051575). The format is cell-based. As to conditions: Pseudomonas aeruginosa; Gram-negative; Mueller-Hinton medium, 24 h at 37° C. The method, then: as §1, §2, §3, §4, §5, §6, §7, §8
For assay [5], the system named is S. intermedius Animal (1051997). Kind of assay: MIC determination, S. intermedius animal (1051997). The note with it: Staphylococcus intermedius; Gram-positive; Mueller-Hinton medium, 24 h at 37° C. The format is cell-based. As for the experimental part:
as §1, §2, §3, §4, §5, §6, §7, §8

For another assay, the system named is E. coli Human ATCC 28922. Kind of assay: MIC determination, E. coli human ATCC 28922. It is filed as cell-based. As to conditions: Escherichia coli, ATCC28922; Gram-negative; Mueller-Hinton medium, 24 h at 37° C. The method, then: as §1, §2, §3, §4, §5, §6, §7, §8

A word on the MIC: it is the lowest concentration found to suppress growth. Low readings indicate greater potency, high ones weaker potency. Regarding `CC(C)NC(=O)CC[C@@H](C)[C@H]1CCC2C3CCC4C[C@@H](NCCCN5CCN(CCCN)CC5)CC[C@]4(C)C3C[C@H](O)[C@@]21C` (stereo partly drawn) [(3), 3β-(1,4-bis(3-aminopropyl)piperazine)-N-isopropyldeoxycholamide], the MIC was 124 µg/mL (≈ 201 µM) in [1]; 15 µg/mL (≈ 24.4 µM) in the assay on S. aureus Animal (340); 124 µg/mL (≈ 201 µM) in [2]; 15 µg/mL (≈ 24.4 µM) in [3]; above 124 µg/mL in the assay with E. coli Animal (1956); 62 µg/mL (≈ 101 µM) in assay [4]. Besides, the MIC came out at 4 µg/mL (≈ 6.49 µM) in [5] and 124 µg/mL (≈ 201 µM) in the assay with E. coli Human ATCC 28922. The IC50 in the assay with CHO-K1 cells (CHO-K1, 24 h) was 120 µg/mL (≈ 195 µM). Besides, in the assay with P. aeruginosa (1051575), the “MIC - P. aeruginosa (1051575): content of compound of formula (I) to restore the doxycycline activity (at 2 μg/mL)” value (shortened to “MIC - P. aeruginosa (1051575): content”) stood at 2 µg/mL.
Regarding `CC(C)NC(=O)CC[C@@H](C)[C@H]1CCC2C3C(C[C@H](O)[C@@]21C)[C@@]1(C)CC[C@H](NCCCN2CCN(CCCN)CC2)CC1C[C@H]3O` (some centres unmarked) [(6)], the MIC in assay [1] came out at 32 µg/mL (≈ 50.6 µM); against S. aureus Animal (340), 32 µg/mL (≈ 50.6 µM); in assay [2], 218 µg/mL (≈ 345 µM); in assay [3], 16 µg/mL (≈ 25.3 µM); against E. coli Animal (1956), 64 µg/mL (≈ 101 µM); in assay [4] it was 64 µg/mL (≈ 101 µM). Moreover, the figures for the MIC (in assay [5]; against E. coli Human ATCC 28922) were 16 µg/mL (≈ 25.3 µM) and 32 µg/mL (≈ 50.6 µM), respectively. Also, in the assay with CHO-K1 cells (CHO-K1, 24 h), the IC50 was determined as 100 µg/mL (≈ 158 µM). The “MIC - P. aeruginosa (1051575): content” value with P. aeruginosa (1051575) amounted to 8 µg/mL.
In the case of `CC(C)NC(=O)CC[C@@H](C)[C@H]1CCC2C3C(CC[C@@]21C)[C@@]1(C)CC[C@H](NCCCN2CCN(CCCN)CC2)CC1C[C@H]3O` (stereo partly drawn) [(9), 3β-(1,4-bis(3-aminopropyl)piperazine)-N-isopropylchenodeoxycholamide], the minimal inhibitory concentration (MIC) in assay [1] was 62 µg/mL (≈ 101 µM); in the assay on S. aureus Animal (340), 8 µg/mL (≈ 13 µM); in assay [2], 124 µg/mL (≈ 201 µM); in assay [3], 16 µg/mL (≈ 26 µM); against E. coli Animal (1956), 15 µg/mL (≈ 24.4 µM); in assay [4] it was 62 µg/mL (≈ 101 µM). Besides, the MIC in assay [5] is 8 µg/mL (≈ 13 µM); in the assay with E. coli Human ATCC 28922, 15 µg/mL (≈ 24.4 µM). For the same compound, the IC50 with CHO-K1 cells (CHO-K1, 24 h) came to 90 µg/mL (≈ 146 µM). Besides, the “synergism when administered with doxycycline” value in the assay with P. aeruginosa (1051575) (doxycycline at 2 μg/mL) was “noteworthy synergism”. In addition, in the assay on P. aeruginosa (1051575), the “MIC - P. aeruginosa (1051575): content” value worked out at 2 µg/mL.
`CC(C)NC(=O)CC[C@@H](C)[C@H]1CCC2C3C(CC[C@@]21C)[C@@]1(C)CC[C@H](NCCCN2CCN(CCCN)CC2)CC1C[C@@H]3O` (stereo partly drawn) [(16), 3β-(1,4-bis(3-aminopropyl)piperazine)-N-isopropylursodeoxycholamide]: the MIC was 120 µg/mL (≈ 195 µM) in [1]; 60 µg/mL (≈ 97.4 µM) in the assay with S. aureus Animal (340); above 120 µg/mL in [2]; 60 µg/mL (≈ 97.4 µM) in assay [3]; 120 µg/mL (≈ 195 µM) against E. coli Animal (1956); above 120 µg/mL in assay [4]. Besides, the values for the MIC (in assay [5]; in the assay on E. coli Human ATCC 28922) were 15 µg/mL (≈ 24.4 µM) and 60 µg/mL (≈ 97.4 µM), respectively.
In the case of `CC(C)NC(=O)CC[C@@H](C)[C@H]1CCC2C3C(CC[C@@]21C)[C@@]1(C)CC[C@H](NCCNCCNCCNCCNCCN)CC1C[C@@H]3O` (stereo partly drawn) [(23), 3β-(pentaethylenehexamine)-N-isopropylursodeoxycholamide], the MIC turned out to be 64 µg/mL (≈ 98.8 µM) in assay [1]; 32 µg/mL (≈ 49.4 µM) against S. aureus Animal (340); 128 µg/mL (≈ 198 µM) in assay [2]; 32 µg/mL (≈ 49.4 µM) in [3]; 128 µg/mL (≈ 198 µM) with E. coli Animal (1956); 128 µg/mL (≈ 198 µM) in [4]. The MIC in [5] was found to be 16 µg/mL (≈ 24.7 µM); with E. coli Human ATCC 28922, 128 µg/mL (≈ 198 µM). For the same compound, the IC50 in the assay on CHO-K1 cells (Table III, WST1 test, CHO-K1 cells, 24 hours) was 115 µg/mL (≈ 177 µM).
As to `CCN(CC)C(=O)CC[C@@H](C)[C@H]1CCC2C3C(CC[C@@]21C)[C@@]1(C)CC[C@H](NCCCNCCCNCCCN)CC1C[C@H]3O` (stereo partly drawn) [(39), 3β-norspermino-N,N-diethylchenodeoxycholamide], the minimal inhibitory concentration (MIC) with S. aureus Animal (340) stood at 1 µg/mL (≈ 1.62 µM); in assay [2] it was 15 µg/mL (≈ 24.3 µM); in assay [3], 2 µg/mL (≈ 3.24 µM); in the assay on E. coli Animal (1956), 4 µg/mL (≈ 6.47 µM); in assay [4], 8 µg/mL (≈ 12.9 µM); in [5], 1 µg/mL (≈ 1.62 µM). The compound further came in with an MIC in the assay with E. coli Human ATCC 28922 of 120 µg/mL (≈ 194 µM). In addition, the “MIC - P. aeruginosa (1051575): content” value in the assay on P. aeruginosa (1051575) was determined as 2 µg/mL.
